From patent US20200246465A1, “USE OF TRYPTOPHAN DERIVATIVES FOR PROTEIN FORMULATIONS” (Genentech, Inc., priority 2015, published 2020)
“And” between values parts separate entries of the source, which are not always exact repeats. Equal entries are not always repeated.

Experiments:
Assay type in all cases: physicochemical
[1] = Fenton stress of NAT in formulation buffer, RP-HPLC at 240 nm; details: for % NAT degradation ± 1SD: Fenton stress (0.2 mM FeCl2, 10 ppm H2O2, 3 hours 40° C.)
Protocol: FeCl2 (Sigma Aldrich, 98% purity) and H2O2 (Sigma Aldrich, 30% w/w in H2O) were added to a final concentration of 0.2 mM and 10 ppm, respectively, to a histidine-containing buffer at pH 5.5 with 0.3 mM NAT ±5 mM L-Met, pH 5.5. Upon addition of H2O2 the vials were vortexed briefly and incubated for 3 hours at 40° C. Oxidation was quenched by the addition of L-Met to a final concentration of 100 mM. After the addition of the quenching solution, the final NAT concentration was 0.2 mM.
(§1) NAT and NAT degradants were separated on an Agilent 1200 series HPLC or Waters H Class UPLC using an Agilent ZORBAX SB-C18 3.5 μm, 4.6×75 mm reverse phase column. Column temperature was held at 30±0.8° C. by a thermostat controller. The gradients used for HPLC and UPLC are listed in Tables 5 and 6, respectively (note: the shorter gradient on the UPLC was designed to accommodate earlier retention times and the column re-equilibration period was elongated due to the larger range of system pressure at a flow rate of 1.0 ml/min). NAT degradation products were detected at 240 nm. The standard bandwidth setting (8 nm for Agilent 1200 HPLC, 4.8 nm for Waters H-Class) was used for analysis on each instrument. The autosampler was maintained at 5±3° C. 10 nmol of NAT and/or NAT degradants (50 μl for most samples) was injected on to the column for analysis. The chromatograms were processed using Dionex Chromeleon software.
(§2) Total NAT degradation for each sample was calculated by comparing NAT peak area to the control sample for each stress model (Table 7). NAT degradation ranged from 3% (thermal stress, non-His buffer) to 83% (ICH light stress, His buffer).

[2] = AAPH oxidation stress of NAT in formulation buffer, RP-HPLC at 240 nm; details: for % NAT degradation ± 1SD: AAPH stress (1.0 mM AAPH, 40° C. 16 hours)
Protocol: AAPH (Calbio Chem, 99.8%) was used to model oxidative degradation by alkyl peroxides. Histidine and non-histidine buffers at pH 5.5 containing 0.3 mM NAT ±5 mM L-Met pH 5.5 were treated with an aqueous AAPH solution to a final concentration of 1.0 mM AAPH. An equivalent volume of Milli-Q H2O was added to control samples. Samples were incubated at 40° C. for 16 hours. Oxidation was quenched by the addition of L-Met to a final concentration of 20 mM. After the addition of the quenching solution, the final NAT concentration was 0.2 mM. NAT and NAT degradants were separated on an Agilent 1200 series HPLC or Waters H Class UPLC using an Agilent ZORBAX SB-C18 3.5 μm, 4.6×75 mm reverse phase column. Column temperature was held at 30±0.8° C. by a thermostat controller. The gradients used for HPLC and UPLC are listed in Tables 5 and 6, respectively (note: the shorter gradient on the UPLC was designed to accommodate earlier retention times and the column re-equilibration period was elongated due to the larger range of system pressure at a flow rate of 1.0 ml/min). NAT degradation products were detected at 240 nm. The standard bandwidth setting (8 nm for Agilent 1200 HPLC, 4.8 nm for Waters H-Class) was used for analysis on each instrument. The autosampler was maintained at 5±3° C. 10 nmol of NAT and/or NAT degradants (50 μl for most samples) was injected on to the column for analysis. The chromatograms were processed using Dionex Chromeleon software. Protein-containing samples were diluted in guanidine and the proteins removed via ultra-filtration (Amicon spin filters with a 30 kDa molecular weight cut-off). […] Using the final sample preparation conditions, recovery of NAT was 94-99% for three tested antibody/antibody derivatives and recovery of NAT degradants was 98-100% (data not shown). […] Total NAT degradation for each sample was calculated by comparing NAT peak area to the control sample for each stress model (Table 7). NAT degradation ranged from 3% (thermal stress, non-His buffer) to 83% (ICH light stress, His buffer). The impact of low concentrations of protein on AAPH-induced NAT degradation was also analyzed. Two antibodies (protein1 and protein2) were diluted to 1.0 mg/ml in buffer and formulated with 0.3 mM NAT (˜45:1 mol NAT:mol protein). Upon AAPH stress, the level of NAT degradation was largely consistent between protein-containing and protein-free solutions (˜40% loss in NAT peak area), as was the distribution of oxidant species (FIG. 11).

[3] = ICH light stress of NAT in formulation buffer, RP-HPLC at 240 nm; details: for % NAT degradation ± 1SD: ICH light stress (1.2 million lux-hours, 200 W-hours/m^2 UV, 24 hours), 0.3 mM NAT
Protocol: A light box [Atlas SunTEST CPS+ Xenon Light Box (Chicago, Ill.)] designed to conduct the drug substance/product photostability test recommended by the International Conference on Harmonization (ICH) Expert Working Group was utilized to provide light stress to NAT-containing samples. The ICH photostability test is defined as 1.2 million lux-hours of white light and 200 W-hours/m^2 of UV light; the light box was programmed to provide the stress over a period of 24 hours. Histidine and non-histidine buffers containing 0.3 mM NAT ±5 mM L-Met were aliquoted into sterile glass vials (1 ml/vial). The vials were capped and placed on their side in the light box to maximize exposure to the light source. A control sample for each buffer condition was covered in foil and placed in the light box for the duration of exposure. For consistency with the other stress models, prior to HPLC analysis, the buffer solutions were diluted with Milli-Q H2O to a final NAT concentration of 0.2 mM.
as §1, §2

[4] = Thermal stress of NAT in formulation buffer, RP-HPLC at 240 nm; details: elevated temperature (40° C., 5 months), His buffer, 1.0 mM NAT
Protocol: Histidine and non-histidine buffers containing 1.0 mM NAT were aliquoted into sterile glass vials (5 ml/vial, 6 vials per buffer). Vials were stored in a dark box at the indicated temperatures during the stress and transferred to −70° C. for storage until analysis (timepoints taken monthly for five months). Initial time points for samples of each buffer solution were transferred immediately to −70° C. Prior to analysis, the samples were thawed and diluted with Milli-Q H2O to a final NAT concentration of 0.2 mM.
as §1, with “10 nmol of NAT and/or NAT degradants (50 μl for most samples) was injected on to the column for analysis. The chromatograms were processed using Dionex Chromeleon software.” left out
Total NAT degradation for each sample was calculated by comparing NAT peak area to the control sample for each stress model (Table 7). […]

[5] = His + 5 mM Met buffer, 0.3 mM NAT

CC(=O)N[C@@H](Cc1c[nH]c2ccccc12)C(=O)O [NAT, N-acetyl-tryptophan]
improvement to NAT stability by 5 mM Met (total NAT loss) ([1]; Fenton model): 25%
% NAT degradation ± 1SD [1, 5]: 15.2 ± 0.7 (n = 3) %
% NAT degradation ± 1SD ([1]; His buffer pH 5.5, 0.3 mM NAT): 40 ± 3 (n = 3) %
NAT degradation (loss) ([1]; Fenton stress, under all tested conditions): 30-40% and 33-41%
improvement to NAT stability by 5 mM Met (total NAT loss) ([2]; AAPH model, depending on buffer): 4-8%
% NAT degradation ± 1SD [2, 5]: 34.7 ± 0.1 (n = 3) %
% NAT degradation ± 1SD ([2]; His buffer pH 5.5, 0.3 mM NAT): 39.8 ± 0.2 (n = 3) %
% NAT degradation ± 1SD ([2]; Non-His + 5 mM Met buffer, 0.3 mM NAT): 32.9 ± 0.5 (n = 3) %
% NAT degradation ± 1SD ([2]; Non-His buffer pH 5.5, 0.3 mM NAT): 41.1 ± 0.7 (n = 3) %
NAT degradation (loss) ([2]; AAPH stress, under all tested conditions): 30-40% and 33-41%
loss in NAT peak area ([2]; AAPH stress, 0.3 mM NAT in histidine-based buffer, protein-free or with 1.0 mg/ml protein1 or protein2): ~40%
% NAT degradation ± 1SD ([3]; His + 5 mM Met buffer): 17.6 ± 0.7 (n = 2) %
% NAT degradation ± 1SD ([3]; His buffer): 83.4 ± 0.2 (n = 2) %
% NAT degradation ± 1SD ([3]; Non-His + 5 mM Met buffer): 18 ± 2 (n = 2) %
% NAT degradation ± 1SD ([3]; Non-His buffer): 28% and 28.0 ± 0.1 (n = 2) %
improvement to NAT stability by 5 mM Met (total NAT loss) ([3]; ICH light stress conditions): 10-16%
% NAT degradation ± 1SD [4]: 11.1 (n = 1) %
